“And” between values parts separate entries of the source, which are not always exact repeats. Equal entries are not always repeated.
Key:
[1] = system: neuronal firing in hamster SCN slices; experiment: NMDA-induced phase advances of neuronal firing in hamster SCN slices maintained in vitro; format: cell-based; settings: for Phase shift: mean ± S.E.M.; for reversal of the effect of NPY on NMDA-induced phase advances, % of the NMDA alone experiment: antagonist 10 μM with NMDA 100 μM + NPY 2 ng/ml, in vitro
Description: Brain slices containing the SCN were taken on a nominally “preparatory day”. During the subsequent night, at 3-3.5 hours before the scheduled onset of light, drugs were administered to the bath. Neuronal recordings were made beginning early the next day, nominally the “experimental day”, and continued until the peak firing rate could be established. A shift in this peak to an earlier point in time is referred to as a “phase advance”.
Phase advances were measured in vitro by sampling spontaneous activity from neurons in a brain slice preparation of the suprachiasmatic nucleus, herein abbreviated SCN, that is known to contain the circadian clock. The term “brain slice preparation”, as used herein, is defined as a cut section of brain that is placed in a plastic chamber and kept fully functioning by providing it with ACSF (artificial cerebrospinal fluid) that has been warmed and infused with oxygen. Recordings of the spontaneous activity of neurons in the SCN brain slice preparation follow a 24-hour pattern of activity that marks the circadian rhythm. Following application of N-methyl-D-aspartate (NMDA), a compound that mediates the phase advances elicited by light in vivo, neurons in the SCN shift their pattern of firing in vitro to reflect a phase advance. Application of NPY blocks the phase advances elicited by NMDA; NPY Y5 antagonists of formula Ia and IIa block these effects of NPY.
Animals and tissue preparation. Male golden hamsters (LVG, Charles River, 40-60 days old) were housed under a light:dark schedule of 14 hours of constant light and 10 hours of constant dark, with food and water available ad libitum. Hamsters were administered an overdose of halothane anesthesia and decapitated during the subjective day. Hypothalamic slices (500 μm) containing the suprachiasmatic nucleus (SCN) were placed in a gas-fluid interface slice chamber (Medical Systems BSC with Haas top), continuously bathed (1 ml/min) in artificial cerebrospinal fluid (ACSF) containing 125.2 mM NaCl, 3.8 mM KCl, 1.2 mM KH2PO4, 1.8 mM CaCl2, 1 mM MgSO4, 24.8 mM NaHCO3, 10 mM glucose. ACSF (pH 7.4) was supplemented with an antibiotic (gentamicin, 50 mg/l) and a fungicide (amphotericin, 2 mg/l) and maintained at 34.5° C. Warm, humidified 95% oxygen:5% carbon dioxide was continuously provided to the slice preparation.
Electrophysiological studies. Extracellular single unit activity of SCN cells was detected with glass micropipette electrodes filled with ACSF, advanced through the slice using a hydraulic microdrive. The signal was further amplified and filtered, and was continuously monitored by an oscilloscope and audio monitor. Firing rate was analyzed using data acquisition software and a customized program for calculation of descriptive statistics. The term “firing rate”, as used herein, is defined as the rate at which the neurons produce an action potential during the period of recording and is indicative of their level of functioning. Firing rates in the range of 1 to 10 Hz are typical for SCN neurons. A number of experiments in each condition were recorded “blind” where the person recording data had no knowledge of the treatment. One slice was recorded from each animal. A total number of 42 slices was recorded.
Data analysis. Data were initially grouped into 1 h bins and an analysis of variance test was used to determine if any bins differed from the others. If the analysis of variance test indicated significant differences, data were smoothed using 1 h running means with a 15-minute lag. The time of the middle of the 1 h bin with the highest mean firing rate after processing by this smoother was taken as the time of peak firing rate for that slice. Phase advances of individual slices were measured relative to the average time of peak firing of control slices. Significant differences between groups (p<0.05) were determined by ANOVA followed by Bonferroni method (for all vs control comparisons). Means are reported±standard error. […]

[2] = system: hamster wheel running activity; experiment: Light-induced phase advances of hamster wheel running activity (in vivo); settings: for Phase shift: mean ± S.E.M.
Description: The in vivo experimental design included recording a behavioral overt rhythm such as running-wheel activity and exposing the animals to an amount of light that is known to produce a phase advance in this pattern of activity. The term “running-wheel activity”, as used herein, is defined as physical activity measured as revolutions of a wheel permanently positioned in the animals' cages and rotated as the animals run in them. The onset of such behavior is a well regarded marker of timing in circadian rhythms. Application of NPY through a cannula aimed directly into the SCN blocks the ability of light to produce a phase advance; NPY Y5 antagonists of formula IIa block these effects of NPY. Furthermore, when given in the absence of NPY, NPY Y5 antagonists of formula IIa enhance the ability of light to produce phase advances.
Surgery. For in vivo treatment, hamsters (80-100 g) were deeply anesthetized with nembutal (80 mg/kg, i.p.), administered an analgesic (buprenorphine, 0.05 mg/kg, s.c.) and mounted in a stereotaxic instrument in order to rigidly fix the skull. They were surgically implanted with a 25 gauge stainless steel guide cannula aimed at the SCN. After a week of recovery under LD 14:10 (14 hours of light, 10 hours of dark), animals were individually transferred to cages (48×27×20 cm) equipped with wheels. Wheel running activity was recorded with ClockLab hardware and software (Actimetrics, Evanston, Ill.).
Drugs and routes of administration. Animals were briefly anesthetized in order to minimize the stress induced by restraint during cannula injections with a mixture of oxygen and isoflurane administered by means of a gas anesthesia machine (2.5% isoflurane to induce anesthesia, 1.5% to maintain anesthesia through a nose-mask). NPY (0.2 μL, 234 μM) was dissolved in ACSF and administered through a cannula with a 1 μL Hamilton syringe connected with polyethylene tubing to a 13.1 mm stainless steel injector cannula (30 gauge). NPY Y5 receptor antagonist (0.6 ml, 10 mg/kg) was dissolved in 32% 2-hydroxypropyl-B-cyclodextrin, and injected s.c. 30 minutes before NPY and/or light stimulation. Light pulses (5 min, 150 lux) were delivered individually by placing animals under two white fluorescent tubes (Phillips, model F30T12); the timing of the light pulses was selected to be in the animals' dark period, 3.5 hours before lights would normally come on.
Animals were allowed at least 10 days under LD (14 hours of light, 10 hours of dark) in order to establish a stable rhythm, and then housed under constant dim red light (DRL) provided by a safelight lamp (Coastar, Inc. <1 lux). Two sets of experiments comprising five treatments were delivered in a counterbalanced design: NPY alone, NPY+light; light alone, light+NPY Y5 antagonist, NPY+NPY Y5 antagonist+light. After two treatments (only one of them involving light stimulation), animals were resynchronized to the previous LD cycle for 7-10 days, and then exposed again to dim red light for the second set of treatments.
Data analysis. For in vivo experiments, data were automatically collected and analyzed with Clocklab software bundle (ActiMetrics Software, Evanston, Ill.). Two investigators blind to the treatment analyzed phase advance magnitudes. Statistical analyses were performed by means of ANOVA followed by Student-Newman-Keul's test.
Phase advances (h) were calculated as the difference in the onset of running behavior in animals kept in dim red light relative to those exposed to combination of light and/or drug treatments. Means±S.E.M. for N=7-12. • a. Light alone experiment in which the animals are exposed to light 3 hours before the scheduled beginning of the animals' period of normal light. There is a resulting phase advance of 1.33 hours. • b. Formula IIa+light experiment in which the animals are pretreated with NPY Y5 antagonist of formula IIa and then exposed to light 3 hours before the scheduled beginning of the animals' period of normal light. […]

[3] = NMDA 100 μM + NPY 2 ng/ml + antagonist 10 μM, 60 minute bath application
[4] = substance alone, bath application 3.5 hours before scheduled light, NPY 2 ng/ml, NMDA 100 μM, antagonist 10 μM 60 min, N=2-6
[5] = Formula IIa 10 mg/kg s.c. + NPY via cannula + light
[6] = substance + light pulse, Formula IIa 10 mg/kg s.c. 30 minutes prior to light, NPY 0.2 μL via cannula
[7] = substance alone, no light, Formula IIa 10 mg/kg s.c., NPY 0.2 μL via cannula to SCN, N=7-12

| Molecule | Phase shift [1, 3] | reversal of the effect of NPY on NMDA-induced phase advances, % of the NMDA alone experiment [1] | reversal of the effect of NPY on NMDA-induced phase advances, % of the NMDA alone experiment ([1]; listed as formula IIa) | effect on the phase of neuronal firing compared to the control experiment ([1]; substance alone) | Phase shift [1, 4] | enhancement of the light-induced phase advance, % of the light alone experiment ([2]; Formula IIa 10 mg/kg s.c. 30 minutes prior to light, absence of NPY) | reversal of the effects of NPY on light-induced phase advances, % of the light alone experiment [2, 5] | reversal of the effects of NPY on light-induced phase advances, % of the light alone experiment ([2]; Formula IIa 10 mg/kg s.c. + NPY via cannula + light, listed as formula IIa) | Phase shift [2, 5] | Phase shift ([2]; Formula IIa 10 mg/kg s.c. + NPY via cannula, no light) | effect on the phase of wheel running activity ([2]; formula IIa 10 mg/kg s.c. + NPY, no light) | Phase shift [2, 6] | effect on the phase of wheel running activity ([2]; substance alone, no light) | Phase shift [2, 7] | reversal of the effect of NPY on NMDA-induced phase advances, % of the NMDA alone experiment ([1]; listed as formula Ia) | blockade of the NMDA-induced phase advance by NPY ([1]; NMDA 100 μM + NPY 2 ng/ml) | Phase shift ([1]; NMDA 100 μM + NPY 2 ng/ml) | blockade of the phase advance compared to the light alone experiment ([2]; NPY via cannula + light) |
| --- | --- | --- | --- | --- | --- | --- | --- | --- | --- | --- | --- | --- | --- | --- | --- | --- | --- | --- |
| O=C1OC2(CCN(c3nc4cc(C(F)(F)F)ccc4[nH]3)CC2)c2ccccc21 [Formula IIa] | 2.73 ± 0.16 h | about 95% | 95% | no effect | 0.07 ± 0.07 h | 160% | about 90% | 89% | 1.18 ± 0.27 h | -0.20 ± 0.07 h | no effect | 2.11 ± 0.16 h | no effect | -0.12 ± 0.04 h | – | – | – | – |
| O=C1OC2(CCN(C(=O)Nc3ccc(C(F)(F)F)cn3)CC2)c2ccccc21 [Formula Ia] | 2.03 ± 0.88 h | about 70% | – | no effect | 0.32 ± 0.35 h | – | – | – | – | – | – | – | – | – | 70% | – | – | – |
| CN[C@H](CC(=O)O)C(=O)O [NMDA, N-methyl-D-aspartate, reference compound] | – | – | – | – | 2.89 h and 2.89 ± 0.08 h | – | – | – | – | – | – | – | – | – | – | – | – | – |
| Neuropeptide Y [NPY, reference compound] | – | – | – | no effect | -0.18 ± 0.17 h | – | – | – | – | – | – | -0.03 ± 0.20 h | no effect | -0.04 ± 0.11 h | – | complete blockade | -0.07 ± 0.09 h | complete blockade |

Source: patent US20050119283A1, “Treatment of circadian rhythm disorders with NPY Y5 receptor antagonist” (Pfizer Inc, priority 2003, published 2005)
